Columns and labels:
[1] = target: T1, HDAC8 (Homo sapiens, UniProt Q9BY41); conditions: cited from earlier work
T1 sequence (Q9BY41 1-377): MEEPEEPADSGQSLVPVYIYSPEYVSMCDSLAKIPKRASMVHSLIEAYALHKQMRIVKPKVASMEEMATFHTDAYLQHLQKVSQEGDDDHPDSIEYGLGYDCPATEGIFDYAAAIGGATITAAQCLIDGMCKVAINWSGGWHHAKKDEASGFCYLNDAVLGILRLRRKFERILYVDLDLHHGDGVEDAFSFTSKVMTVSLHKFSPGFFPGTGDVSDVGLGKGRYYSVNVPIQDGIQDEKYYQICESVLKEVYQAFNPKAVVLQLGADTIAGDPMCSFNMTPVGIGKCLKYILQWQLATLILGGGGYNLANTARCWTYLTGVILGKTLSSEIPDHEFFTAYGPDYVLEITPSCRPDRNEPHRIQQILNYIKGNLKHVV

[2] = tested on: histone 4 lysine 12 acetylation (AcH4K12); experiment: Western blot of histone 4 lysine 12 acetylation in brain tissue after behavioural tests; format: in vivo, Sprague-Dawley rats; conditions: 5 mg/kg/d i.p.
Description: The hippocampus tissue and primary hippocampal cells were lysed and sonicated in an RIPA buffer (50 mM Tris-HCl (pH 7.4), 150 mM NaCl, 2 mM EDTA, 1% IGEPAL CA-630, 1 mM phenylmethylsulfonyl fluoride (PMSF), 20 μg/mL pepstatin A, 20 μg/mL leupeptin, 20 μg/mL aprotinin, 50 mM NaF, and 1 mM Na3VO4). The protocol was performed as described previously. The lysate was resolved by 8% SDS-PAGE. The proteins resolved by SDS-PAGE were transferred to the PVDF membrane (Millipore, Bedford, MA, USA) and western blotting was conducted with the following antibodies: rabbit anti-acetyl histone 4 lysine 12 and mouse anti-histone 4 (Cell signaling, Danvers, MA, USA). The secondary antibodies used include the HRP-conjugated goat-anti-rabbit IgG antibody and HRP-conjugated goat-anti-mouse IgG antibody (Millipore). The membrane was developed by reacting with a chemiluminescent HRP substrate (Millipore) and exposure to X-ray film. The protein bands were quantified using the NIH Image J Software.

[3] = tested on: primary hippocampal neurons; experiment: Neurite outgrowth by immunocytochemistry; format: cell-based, Sprague-Dawley rats
Description: The primary hippocampal culture was prepared as described previously. To culture embryonic hippocampal primary neurons, pregnant Sprague-Dawley rats were purchased from the National Laboratory Center in Taiwan. The hippocampal tissue from the embryos of the Sprague-Dawley rats (E19) was dissociated with 100 U/mL of papain (Sigma-Aldrich) and plated onto poly-L-lysine-coated coverslips at a density of 1 × 10^4 cells/cm^2 with a minimal essential medium containing 5% calf serum, 5% horse serum, and 50 ng/mL insulin-transferrin-selenite (Sigma-Aldrich). Three hours after plating, the medium was replaced with 2% of a B27-neurobasal medium (Invitrogen, Carlsbad, CA, USA) containing 0.5 mM glutamine and 12.5 μM glutamate.
Supplemental Materials and Methods
2.1. HEK293T cells. HEK293T cells were maintained in Dulbecco’s modified Eagle’s medium (Invitrogen) supplemented with 10% fetal calf serum (Invitrogen). Cultures were maintained in a humidified 5% CO2-95% air atmosphere at 37°C.
2.2. Immunocytochemistry. Cultured hippocampal neurons were fixed with 4% paraformaldehyde for 15 min and permeablized with 0.1% Triton X-100 for 20 min at room temperature (RT). The primary Mouse anti-β III tubulin and anti-actin (Millipore) Abs were added for 1 h at RT. […]
The lysate was resolved by 8% SDS-PAGE. […] The protein bands were quantified using the NIH Image J Software. […]

[4] = parameters: method as in PMID 20010553; conditions: cited from earlier work
[5] = tested on: HDAC8; experiment: HDAC8 activity assay (Fluor-de-Lys) in brain nuclear extracts after behavioural tests; format: in vivo, Sprague-Dawley rats; conditions: 5 mg/kg/d i.p., compared with trained-control animals
Description: For the HDAC8 activity assay, the deacetylase activity of HDAC8 was measured using the commercially available Fluor-de-Lys-HDAC8 deacetylase substrate (Enzo, New York, NY, USA) according to the manufacturer instructions. […] The homogenate was centrifuged at 1000 ×g for 10 min to obtain the nuclei pellet. […] To determine the HDAC activity, 10 μg of nuclear extracts was incubated with a specific substrate (100 μM) for 30 min at 37°C, followed by the addition of a developer solution for 30 min at 37°C. […] Data were normalized to swimming control, footshock control, and nontrained-control animals.

[6] = after novel object recognition task

O=C(CCCCCCC(=O)Nc1ccccc1)NO [SAHA, suberoylanilide hydroxamic acid, reference compound]
inhibition of HDAC8 deacetylase activity [1]: little inhibition of HDAC8
H4K12 acetylation in amygdala ([2]; 7 days after footshock): showed the highest H4K12 acetylation
H4K12 acetylation in hippocampus [2, 6]: showed the highest H4K12 acetylation
H4K12 acetylation in hippocampus ([2]; after water-maze experiment): showed the highest H4K12 acetylation
neurite branch and neurite length [3]: increased the neurite length in particular
crossing of the blood-brain barrier [4]: cross the blood-brain barrier (BBB)
HDAC8 activity in amygdala ([5]; 7 days after footshock): did not have increased HDAC8 activity
HDAC8 activity in hippocampus [5, 6]: did not have further increased HDAC8 activity
HDAC8 activity in hippocampus ([5]; after water-maze probe trial): did not increase HDAC8 activity

From publication PMC3625590, “NBM-T-L-BMX-OS01, Semisynthesized from Osthole, Is a Novel Inhibitor of Histone Deacetylase and Enhances Learning and Memory in Rats” (Evidence-based Complementary and Alternative Medicine : eCAM, 2013)
